Here are results for 13 compounds from patent US8962859B2, “Spiro-amino-imidazo-fused heterocyclic compounds as beta-secretase modulators and methods of use” (Amgen Inc., priority 2011, dated 2015).

In one assay the test system is gamma-secretase. The settings on record: cited from earlier work.
The target in the next assay is BACE 1 (Homo sapiens (Human), UniProt P56817). Put plainly: In vitro enzymatic BACE FRET assay. The assay is classed as biochemical. The settings on record: average IC50; acetate buffer pH 4.2, enzyme 0.2 nM, FRET substrate 50 nM. As for the experimental part: In Vitro Enzymatic BACE FRET (Fluorescence Resonance Energy Transfer) Assay (Enzyme Assay Data in the Example Table I)
The assay buffer used in this screen is 0.05 M acetate, pH 4.2, 10% DMSO final, 100 uM genapol (which is a nonionic detergent, below its Critical Micelle Concentration). The Beta Secretase enzyme (0.2 nM) is pre-incubated for one hour with inhibitors, typically in about 1 uL of DMSO according to a serial dilution, are added thereto. This assay is effectively started by the addition of FRET substrate (50 nM) and the combination is incubated for one hour. The FRET assay is terminated with by addition of Tris buffer, which raises the pH to neutrality, and the fluorescence is determined. The FRET substrate is a peptide with commercially available fluorophore and quencher, on opposite sides of the BACE cleavage site. Proteolytic cleavage of the FRET substrate releases quenching of fluorescence (excitation 488 nm and […]).

Assay [1] deals with Aβ 40 levels in cells stably expressing Amyloid Precursor Protein (APP). In words: In vitro BACE cell-based assay (HEK cell assay), Aβ40 sandwich ELISA. The settings on record: average IC50, inhibition of Aβ40 in conditioned medium after 24 h. The method, then:
The cell-based assay measures inhibition or reduction of Aβ40 in conditioned medium of test compound treated cells expressing amyloid precursor protein.
Cells stably expressing Amyloid Precursor Protein (APP) were plated at a density of 40K cells/well in 96 well plates (Costar). The cells were cultivated for 24 hours at 37° C. and 5% CO2 in DMEM supplemented with 10% FBS. The test compounds were then added to cells in 10-point dose response concentrations with the starting concentration being either 100 μM or 10 μM. The compounds were diluted from stock solutions in DMSO and the final DMSO concentration of the test compounds on cells was 0.1%. After 24 h of incubation with the test compounds the supernatant conditioned media was collected and the Aβ 40 levels were determined using a sandwich ELISA. The IC50 of the compound was calculated from the percent of control or percent inhibition of Aβ 40 as a function of the concentration of the test compound.
The sandwich ELISA to detect Aβ 40 was performed in 96 well microtiter plates, which were pre-treated with goat anti-rabbit IgG (Pierce). The capture and detecting antibody pair that were used to detect Aβ 40 from cell supernatants were affinity purified pAb40 (Biosource) and biotinylated 6E10 (Signet Labs Inc.), respectively.
Cellular supernatants were incubated with the capture antibody for 3 h at 4° C., followed by 3 wash steps in TBS-tween (0.05%). The detecting antibody incubation was for 2 h at 4° C., again followed by the wash steps as described previously. The final readout of the ELISA is Time-Resolved Fluorescence (counts per minute) using Delfia reagents Streptavidin-Europium and Enhancement solutions (Perkin Elmer) and the Victor 2 multilabel counter (Perkin Elmer).

Chain of BACE 1 (P56817 46-501): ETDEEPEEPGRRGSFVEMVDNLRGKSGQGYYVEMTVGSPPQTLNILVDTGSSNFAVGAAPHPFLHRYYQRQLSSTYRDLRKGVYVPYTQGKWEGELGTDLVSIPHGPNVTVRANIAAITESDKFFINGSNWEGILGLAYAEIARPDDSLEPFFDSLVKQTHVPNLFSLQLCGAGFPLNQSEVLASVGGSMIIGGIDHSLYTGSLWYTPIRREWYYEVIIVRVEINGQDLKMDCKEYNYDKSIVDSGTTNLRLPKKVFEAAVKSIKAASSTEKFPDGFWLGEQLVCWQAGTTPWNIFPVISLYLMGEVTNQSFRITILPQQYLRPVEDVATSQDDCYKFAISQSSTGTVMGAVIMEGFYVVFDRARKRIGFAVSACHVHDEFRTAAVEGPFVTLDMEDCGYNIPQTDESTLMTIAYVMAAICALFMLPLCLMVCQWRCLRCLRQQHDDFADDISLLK

In the case of `NC(=O)[C@@H](CCC(F)(F)F)N(Cc1ccc(-c2ncon2)cc1F)S(=O)(=O)c1ccc(Cl)cc1` [BMS-708163], the “notch selectivity (amyloid-beta precursor protein selective)” value in the assay on gamma-secretase is 193 ×.
Broadly, the IC50 is the midpoint of a concentration-inhibition curve. Take `NC1=N[C@]2(c3cc(-c4cccnc4F)ccc3Oc3c(F)cc(-c4ccnc(F)c4)cc32)c2nccn21` [Example 8A, (7S)-4′-fluoro-7′-(2-fluoro-3-pyridinyl)-2′-(2-fluoro-4-pyridinyl)spiro[imidazo[1,5-a]imidazole-7,9′-xanthen]-5-amine]: the IC50 at BACE 1 turned out to be 10 nM; in assay [1] (Homo sapiens, HEK293), 138 nM.
The matching figures for `NC1=N[C@@]2(c3cc(-c4cccnc4F)ccc3Oc3c(F)cc(-c4ccnc(F)c4)cc32)c2nccn21` [Example 8B, (7R)-4′-fluoro-7′-(2-fluoro-3-pyridinyl)-2′-(2-fluoro-4-pyridinyl)spiro[imidazo[1,5-a]imidazole-7,9′-xanthen]-5-amine]: 0.3 nM and 86 nM.
Regarding `NC1=N[C@]2(c3cc(-c4cccnc4F)ccc3Oc3c(F)cc(N4CCOCC4)cc32)c2nccn21` [Example 9A, (7S)-4′-fluoro-7′-(2-fluoro-3-pyridinyl)-2′-(4-morpholinyl)spiro[imidazo[1,5-a]imidazole-7,9′-xanthen]-5-amine], the IC50 on BACE 1 was 189 nM; in assay [1] (Homo sapiens, HEK293) it was 3970 nM.
As to `NC1=N[C@@]2(c3cc(-c4cccnc4F)ccc3Oc3c(F)cc(N4CCOCC4)cc32)c2nccn21` [Example 9B, (7R)-4′-fluoro-7′-(2-fluoro-3-pyridinyl)-2′-(4-morpholinyl)spiro[imidazo[1,5-a]imidazole-7,9′-xanthen]-5-amine], the IC50 was 0.7 nM on BACE 1 and 31 nM in assay [1] (Homo sapiens, HEK293).
For `COc1cc(F)c2c(c1)[C@@]1(N=C(N)N3CCCN=C31)c1cc(-c3cccnc3F)ccc1O2` [Example 10, (7S)-4′-fluoro-7′-(2-fluoropyridin-3-yl)-2′-methoxy-3,4-dihydro-2H-spiro[imidazo[1,5-a]pyrimidine-8,9′-xanthen]-6-amine (7R)-4′-fluoro-7′-(2-fluoropyridin-3-yl)-2′-methoxy-3,4-dihydro-2H-spiro[imidazo[1,5-a]pyrimidine-8,9′-xanthen]-6-amine] the same measures were 22 nM and 78 nM.
In the case of `COc1cc(F)c2c(c1)C1(N=C(N)n3ccnc31)c1cc(-c3cccnc3F)ccc1O2` (stereo not shown) [Example 11, 4′-fluoro-7′-(2-fluoro-3-pyridinyl)-2′-methoxyspiro[imidazo[1,5-a]imidazole-7,9′-xanthen]-5-amine], the IC50 at BACE 1 amounted to 9 nM; in assay [1] (Homo sapiens, HEK293), 58 nM.
The matching figures for `NC1=N[C@@]2(c3cc(-c4cccnc4F)ccc3Oc3c(F)cc(C4=CCCOC4)cc32)c2nccn21` [Example 12, (7R)-2′-(5,6-dihydro-2H-pyran-3-yl)-4′-fluoro-7′-(2-fluoro-3-pyridinyl)spiro[imidazo[1,5-a]imidazole-7,9′-xanthen]-5-amine]: 23 nM and 173 nM.
`NC1=N[C@]2(c3cc(-c4cccnc4F)ccc3Oc3c(F)cc(C4=CCCOC4)cc32)c2nccn21` [Example 13, (7S)-2′-(5,6-dihydro-2H-pyran-3-yl)-4′-fluoro-7′-(2-fluoro-3-pyridinyl)spiro[imidazo[1,5-a]imidazole-7,9′-xanthen]-5-amine]: the IC50 on BACE 1 came out at 0.4 nM; in assay [1] (Homo sapiens, HEK293), 29 nM.
With `Cc1ccc(-c2cc(F)c3c(c2)[C@]2(N=C(N)n4ccnc42)c2cc(-c4cccnc4F)ccc2O3)cc1` [Example 14, (7R)-4′-fluoro-7′-(2-fluoro-3-pyridinyl)-2′-(4-methylphenyl)spiro[imidazo[1,5-a]imidazole-7,9′-xanthen]-5-amine], the concentration for half-maximal inhibition (IC50) on BACE 1 was determined as 114 nM; in assay [1] (Homo sapiens, HEK293), 4160 nM.
For the compound `Cc1ccc(-c2cc(F)c3c(c2)[C@@]2(N=C(N)n4ccnc42)c2cc(-c4cccnc4F)ccc2O3)cc1` [Example 15, (7S)-4′-fluoro-7′-(2-fluoro-3-pyridinyl)-2′-(4-methylphenyl)spiro[imidazo[1,5-a]imidazole-7,9′-xanthen]-5-amine], the 50% inhibitory concentration (IC50) on BACE 1 turned out to be 0.4 nM; in assay [1] (Homo sapiens, HEK293) it was 28 nM.
Take `NC1=N[C@]2(c3cc(-c4cccnc4F)ccc3Oc3c(F)cc(N4CCC(F)(F)CC4)cc32)c2nccn21` [Example 17, (7R)-2′-(4,4-difluoro-1-piperidinyl)-4′-fluoro-7′-(2-fluoro-3-pyridinyl)spiro[imidazo[1,5-a]imidazole-7,9′-xanthen]-5-amine, (7S)-2′-(4,4-difluoro-1-piperidinyl)-4′-fluoro-7′-(2-fluoro-3-pyridinyl)spiro[imidazo[1,5-a]imidazole-7,9′-xanthen]-5-amine]: the figures for the IC50 (on BACE 1; in assay [1]) were 0.7 nM and 51 nM, respectively.
Consider “(7R)-2′-(3,6-dihydro-2H-pyran-4-yl)-4′-fluoro-7′-(2-fluoro-3-pyridinyl)spiro[imidazo[1,5-a]imidazole-7,9′-xanthen]-5-amine, (7S)-2′-(3,6-dihydro-2H-pyran-4-yl)-4′-fluoro-7′-(2-fluoro-3-pyridinyl)spiro[imidazo[1,5-a]imidazole-7,9′-xanthen]-5-amine [Example 16]”, for which the half-inhibitory concentration (IC50) came to 0.6 nM on BACE 1 and 39 nM in assay [1].
